From PubChem BioAssay AID192 (DTP/NCI, 2004)
Inconclusive results and toxic doses are left out. How the source made its calls: active means survival T/C of 150% or more; inactive means T/C below 125% in these data.

Tested on: BDF1 mice, B16 melanoma ip, median survival T/C
Test: NCI In Vivo Anticancer Drug Screen. Data for tumor model B16 Melanoma (intraperitoneal) in B6D2F1 (BDF1) mice
Conditions: endpoint: median survival time, higher = longer survival
Summary of the method: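 Tumor-bearing mice received test compound or vehicle. Survival or tumor size was then measured in both groups. The treated-group figure was divided by the control-group figure.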

[1] = dose: 100.0 mg/kg/injection, schedule: Q01DX009 (ip), vehicle: Klucel (hydroxypropylcellulose) (HPC)
[2] = dose: 200.0 mg/kg/injection, schedule: Q01DX009 (ip), vehicle: Klucel (hydroxypropylcellulose) (HPC)
[3] = dose: 400.0 mg/kg/injection, schedule: Q01DX009 (ip), vehicle: Klucel (hydroxypropylcellulose) (HPC)
[4] = dose: 12.5 mg/kg/injection, schedule: Q01DX009 (ip), vehicle: saline
[5] = dose: 25.0 mg/kg/injection, schedule: Q01DX009 (ip), vehicle: saline
[6] = dose: 50.0 mg/kg/injection, schedule: Q01DX009 (ip), vehicle: saline

Measured: T/C

NNC(=O)c1ccc(Cl)cc1Cl
inactive: dose: 12.5 mg/kg/injection, schedule: Q01DX009 (ip), vehicle: Klucel (hydroxypropylcellulose) (HPC) 100 % of control | dose: 12.5 mg/kg/injection, schedule: Q04DX003 (ip), vehicle: Klucel (hydroxypropylcellulose) (HPC) 103 % of control | dose: 25.0 mg/kg/injection, schedule: Q01DX009 (ip), vehicle: Klucel (hydroxypropylcellulose) (HPC) 86 % of control | dose: 25.0 mg/kg/injection, schedule: Q04DX003 (ip), vehicle: Klucel (hydroxypropylcellulose) (HPC) 93 % of control

CSc1nc(=O)[nH]nc1SCc1ccccc1
inactive: dose: 50.0 mg/kg/injection, schedule: Q01DX009 (ip), vehicle: Klucel (hydroxypropylcellulose) (HPC) 98 % of control | [1] 105 % of control | [2] 98 % of control | [3] 110 % of control

OCCN1CCN(CCCN2c3ccccc3C=Cc3ccccc32)CC1
inactive: dose: 3.12 mg/kg/injection, schedule: Q01DX009 (ip), vehicle: saline 97 % of control | dose: 3.12 mg/kg/injection, schedule: Q04DX003 (ip), vehicle: saline 105 % of control | dose: 6.25 mg/kg/injection, schedule: Q01DX009 (ip), vehicle: saline 110 % of control | [4] 100 % of control | dose: 12.5 mg/kg/injection, schedule: Q04DX003 (ip), vehicle: saline 107 % of control | [5] 95 % of control | dose: 25.0 mg/kg/injection, schedule: Q04DX003 (ip), vehicle: saline 122 % of control | [6] 95 % of control | dose: 50.0 mg/kg/injection, schedule: Q04DX003 (ip), vehicle: saline 115 % of control

ClCc1cccc2c(CCl)cccc12
inactive: dose: 6.25 mg/kg/injection, schedule: Q01DX009 (ip), vehicle: saline with Tween-80 98 % of control | dose: 12.5 mg/kg/injection, schedule: Q01DX009 (ip), vehicle: saline with Tween-80 98 % of control | dose: 25.0 mg/kg/injection, schedule: Q01DX009 (ip), vehicle: saline with Tween-80 102 % of control | dose: 25.0 mg/kg/injection, schedule: Q01DX009 (ip), vehicle: suspension in saline 100 % of control | dose: 50.0 mg/kg/injection, schedule: Q01DX009 (ip), vehicle: suspension in saline 107 % of control | dose: 100.0 mg/kg/injection, schedule: Q01DX009 (ip), vehicle: suspension in saline 90 % of control

CCN(CC)CCOC(=O)Cc1cccc2c(=O)cc(-c3ccccc3)oc12
inactive: [5] 109 % of control | [6] 113 % of control

O=[N+]([O-])c1ccc2c(c1)=N/C(=N\c1nc(O)c(O)[nH]1)N=2
inactive: [1] 86 % of control | [2] 100 % of control | [3] 103 % of control

C=C1C(=O)O[C@H]2C1[C@H](OC(=O)/C(C)=C\COC(C)=O)C[C@]1(CO1)[C@@H]1[C@H](O)[C@H]3O[C@@]3(C)[C@@H]12 (stereo not given in full)
inactive: dose: 3.12 mg/kg/injection, schedule: Q01DX009 (ip), vehicle: other 112 % of control | dose: 6.25 mg/kg/injection, schedule: Q01DX009 (ip), vehicle: other 104 % of control | dose: 12.5 mg/kg/injection, schedule: Q01DX009 (ip), vehicle: other 107 % of control | dose: 25.0 mg/kg/injection, schedule: Q01DX009 (ip), vehicle: other 106 % of control | dose: 50.0 mg/kg/injection, schedule: Q01DX009 (ip), vehicle: other 109 % of control

S=C1NC(c2ccccc2)NC(c2ccccc2)S1 (stereo not given)
inactive: dose: 100.0 mg/kg/injection, schedule: Q01DX009 (ip), vehicle: other 100 % of control | dose: 200.0 mg/kg/injection, schedule: Q01DX009 (ip), vehicle: other 94 % of control | dose: 400.0 mg/kg/injection, schedule: Q01DX009 (ip), vehicle: other 86 % of control

CCCCCOC(CN)C(Cl)(Cl)Cl (stereo not given)
inactive: [4] 93 % of control | [5] 100 % of control | [6] 102 % of control

COc1cc(C2=NCCc3cc4c(cc32)OCO4)cc(OC)c1OC
inactive: [4] 112 % of control | [5] 118 % of control | [6] 104 % of control | dose: 100.0 mg/kg/injection, schedule: Q01DX009 (ip), vehicle: saline 101 % of control

Brc1nnnn1-c1ccccc1
inactive: [1] 90 % of control | [2] 93 % of control
